Read-outs that look alike come from different tables or passages of the source.

For assay [1], the target named is farnesyl protein transferase (Homo sapiens, UniProt P49354+P49356). Nature of the assay: FPT IC50, inhibition of farnesyl protein transferase, in vitro enzyme assay (procedure of WO 95/10516). Format: biochemical. As to conditions: range stated for the listed group of compounds. The method, then: (§1) FPT IC50 (inhibition of farnesyl protein transferase, in vitro enzyme assay) and COS Cell IC50 (Cell-Based Assay) were determined following the assay procedures described in WO 95/10516, published April 20, 1995. GGPT IC50 (inhibition of geranylgeranyl protein transferase, in vitro enzyme assay), Cell Mat Assay, and anti-tumor activity (in vivo anti-tumor studies) could be determined by the assay procedures described in WO 95/10516.
Chain of farnesyl protein transferase (P49356 whole entry, one chain of several): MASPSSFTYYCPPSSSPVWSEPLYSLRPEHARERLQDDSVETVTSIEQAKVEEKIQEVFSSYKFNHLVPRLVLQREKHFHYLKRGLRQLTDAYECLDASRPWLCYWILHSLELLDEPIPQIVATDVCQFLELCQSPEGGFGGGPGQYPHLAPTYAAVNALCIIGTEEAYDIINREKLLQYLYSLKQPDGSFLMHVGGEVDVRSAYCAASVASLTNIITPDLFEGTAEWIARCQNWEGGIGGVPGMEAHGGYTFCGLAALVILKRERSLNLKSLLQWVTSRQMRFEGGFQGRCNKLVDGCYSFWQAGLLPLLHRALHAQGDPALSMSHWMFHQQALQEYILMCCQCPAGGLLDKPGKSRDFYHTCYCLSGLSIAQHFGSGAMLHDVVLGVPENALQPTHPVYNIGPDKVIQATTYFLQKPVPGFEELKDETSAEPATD

Another assay relates to COS Cell. As to the kind of experiment: COS Cell IC50 (Cell-Based Assay, procedure of WO 95/10516). The settings on record: range stated for the listed group of compounds, read-out: Cos Cell. How it is done:
as §1

The next assay has as its system Human tumor cells. Nature of the assay: Soft Agar Assay (anchorage-independent growth, colony count after MTT staining). As to conditions: range stated for the listed group of compounds. It is filed as cell-based. How it is done:
Anchorage-independent growth is a characteristic of tumorigenic cell lines. Human tumor cells are suspended in growth medium containing 0.3% agarose and an indicated concentration of a farnesyl transferase inhibitor. The solution is overlayed onto growth medium solidified with 0.6% agarose containing the same concentration of farnesyl transferase inhibitor as the top layer. After the top layer is solidified, plates are incubated for 10-16 days at 37°C under 5% CO2 to allow colony outgrowth. After incubation, the colonies are stained by overlaying the agar with a solution of MTT (3-[4,5-dimethylthiazol-2-yl]-2.5-diphenyltetrazolium bromide, Thiazolyl blue) (1 mg/mL in PBS). Colonies can be counted and the IC50's can be determined.

The mark [2] stands for this setting: ras form not stated, read-out: FPT IC50.

Turning to `COC(=O)C(=O)N1CCC(CC(=O)N2CCC([C@H]3c4ncc(Br)cc4CCc4cc(Cl)cc(Br)c43)CC2)CC1` [Compound 104.0-B], the IC50 was 0.002 to 0.0317 µM in assay [1] (H-ras, read-out: FPT IC50 (H-ras)); ≥ 0.009 µM with COS Cell; ≥ 0.0195 µM with Human tumor cells.
Regarding `O=C(O)CCCCC(=O)N1CCC(CC(=O)N2CCC([C@H]3c4ncc(Br)cc4CCc4cc(Cl)cc(Br)c43)CC2)CC1` [Compound 107.0-B], the IC50 was 0.0007 to 0.018 µM in assay [1] (setting [2]), ≥ 0.009 µM in the assay on COS Cell and ≥ 0.0195 µM in the assay on Human tumor cells.
The matching figures for `O=C(CC1CCN(C(=O)CC2COCCO2)CC1)N1CCC([C@H]2c3ncc(Br)cc3CCc3cc(Cl)cc(Br)c32)CC1` (stereo partly drawn) [Compound 114.2-B]: 0.0007 to 0.018 µM, ≥ 0.009 µM and ≥ 0.0195 µM.
Take `O=C(CC1CCN(C(=O)CC2CCCO2)CC1)N1CCC([C@H]2c3ncc(Br)cc3CCc3cc(Cl)cc(Br)c32)CC1` (stereo partly drawn) [Compound 114.4-B]: the IC50 in assay [1] (setting [2]) is 0.0007 to 0.018 µM; with COS Cell, ≥ 0.009 µM; in the assay with Human tumor cells it was ≥ 0.0195 µM.
